US9409880B2, “Modulators of TLR3/dsRNA complex and uses thereof” (The Regents of the University of Colorado, a body corporate, priority 2011, dated 2016)

Legend:
[1] = system: TNF-α and IL-1β production; assay: Cytokine-specific ELISA in RAW 264.7 cells; assay type: cell-based, Mouse; details: 27 μM compound
Procedure: A secondary cell assay was used to confirm that compound 4a inhibits the downstream signaling transduction mediated by the formation of the TLR3/dsRNA complex. In addition to TLR3 signaling suppression, the release of the proinflammatory cytokines, TNF-α and IL-1β, were also studied.
RAW cells were planted in 6-well plates at 1,000,000 cells per well with 3 mL of medium (RPMI 1640 medium, supplemented with 10% FBS, penicillin (100 U/mL) and streptomycin ([…])) and grown for 24 h at 37° C. in a 5% CO2 humidified incubator. After 24 h, non-adherent cells and media were removed and replaced with fresh RPMI 1640 medium (3 mL/well). […] In additionally wells, one well was treated with only 4a (27 μM) and the other was treated with nothing. Plates were then incubated for an additional 24 h. […] Approximately 400 μL of supernatant were collected into new tubes, frozen at −80° C. until ready for cytokine measurement. The production of the cytokine interleukin-1β (IL-1β) and TNF-α was quantified with enzyme-linked immunosorbent assays (ELISA) using cytokine-specific capture antibodies, biotinylated monoclonal detection antibodies, and recombinant human cytokine standards according to commercially available ELISA kits from R&D Systems. The cytokine level in each sample was determined in duplicate.

[2] = biological target: T1, TLR2/1 (Mus musculus, UniProt Q9EPQ1+Q9QUN7); assay: RAW264.7 cell nitric oxide TLR selectivity assay (Pam3CSK4); assay type: cell-based; details: 27 μM
T1 construct: endogenous in cells; host or cells: RAW 264.7
T1 sequence (Q9QUN7 25-784): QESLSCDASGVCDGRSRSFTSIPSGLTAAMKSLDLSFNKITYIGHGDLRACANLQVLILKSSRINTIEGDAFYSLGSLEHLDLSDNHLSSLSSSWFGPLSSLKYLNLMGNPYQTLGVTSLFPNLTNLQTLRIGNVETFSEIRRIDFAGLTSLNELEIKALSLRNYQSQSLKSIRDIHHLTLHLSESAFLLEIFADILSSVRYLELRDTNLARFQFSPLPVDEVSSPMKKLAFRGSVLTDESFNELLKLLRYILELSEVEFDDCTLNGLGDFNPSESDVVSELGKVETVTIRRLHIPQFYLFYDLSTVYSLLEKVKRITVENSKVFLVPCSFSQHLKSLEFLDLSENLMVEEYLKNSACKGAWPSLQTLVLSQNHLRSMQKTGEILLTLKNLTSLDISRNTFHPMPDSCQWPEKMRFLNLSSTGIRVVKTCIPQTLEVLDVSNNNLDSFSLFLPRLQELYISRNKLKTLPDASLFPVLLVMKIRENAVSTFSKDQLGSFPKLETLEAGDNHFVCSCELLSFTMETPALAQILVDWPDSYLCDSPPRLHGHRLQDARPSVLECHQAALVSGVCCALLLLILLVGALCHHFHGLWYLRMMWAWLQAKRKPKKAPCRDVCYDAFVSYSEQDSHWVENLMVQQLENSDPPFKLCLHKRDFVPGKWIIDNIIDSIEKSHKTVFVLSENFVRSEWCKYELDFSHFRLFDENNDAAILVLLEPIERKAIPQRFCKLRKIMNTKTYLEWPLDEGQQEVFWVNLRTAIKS
T1 sequence (Q9EPQ1 25-795 limits assumed): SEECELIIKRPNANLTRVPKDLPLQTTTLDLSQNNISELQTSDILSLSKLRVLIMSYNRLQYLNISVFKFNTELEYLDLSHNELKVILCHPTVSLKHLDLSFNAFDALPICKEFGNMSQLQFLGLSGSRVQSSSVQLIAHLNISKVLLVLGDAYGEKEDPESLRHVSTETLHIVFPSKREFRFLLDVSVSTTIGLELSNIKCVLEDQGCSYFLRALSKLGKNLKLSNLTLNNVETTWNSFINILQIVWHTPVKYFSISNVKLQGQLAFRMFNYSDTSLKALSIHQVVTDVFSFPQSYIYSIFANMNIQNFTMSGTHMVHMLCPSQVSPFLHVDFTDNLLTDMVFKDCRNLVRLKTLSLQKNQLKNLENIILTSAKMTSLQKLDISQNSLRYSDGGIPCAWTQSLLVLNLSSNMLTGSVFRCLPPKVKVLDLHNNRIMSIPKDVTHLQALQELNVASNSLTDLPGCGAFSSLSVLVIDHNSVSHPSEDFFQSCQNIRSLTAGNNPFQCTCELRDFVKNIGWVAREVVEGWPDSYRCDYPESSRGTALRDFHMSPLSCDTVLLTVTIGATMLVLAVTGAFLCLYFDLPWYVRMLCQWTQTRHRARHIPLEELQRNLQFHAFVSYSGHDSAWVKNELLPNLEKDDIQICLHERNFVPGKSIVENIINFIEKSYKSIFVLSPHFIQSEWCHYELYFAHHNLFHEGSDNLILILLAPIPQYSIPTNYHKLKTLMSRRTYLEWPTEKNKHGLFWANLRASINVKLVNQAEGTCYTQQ

[3] = biological target: T2, TLR3 (Homo sapiens, UniProt O15455); assay: Fluorescence anisotropy assay, competition with Rhodamine labeled Poly IC; assay type: binding
T2 construct: purchased R &D
T2 sequence (O15455 24-904): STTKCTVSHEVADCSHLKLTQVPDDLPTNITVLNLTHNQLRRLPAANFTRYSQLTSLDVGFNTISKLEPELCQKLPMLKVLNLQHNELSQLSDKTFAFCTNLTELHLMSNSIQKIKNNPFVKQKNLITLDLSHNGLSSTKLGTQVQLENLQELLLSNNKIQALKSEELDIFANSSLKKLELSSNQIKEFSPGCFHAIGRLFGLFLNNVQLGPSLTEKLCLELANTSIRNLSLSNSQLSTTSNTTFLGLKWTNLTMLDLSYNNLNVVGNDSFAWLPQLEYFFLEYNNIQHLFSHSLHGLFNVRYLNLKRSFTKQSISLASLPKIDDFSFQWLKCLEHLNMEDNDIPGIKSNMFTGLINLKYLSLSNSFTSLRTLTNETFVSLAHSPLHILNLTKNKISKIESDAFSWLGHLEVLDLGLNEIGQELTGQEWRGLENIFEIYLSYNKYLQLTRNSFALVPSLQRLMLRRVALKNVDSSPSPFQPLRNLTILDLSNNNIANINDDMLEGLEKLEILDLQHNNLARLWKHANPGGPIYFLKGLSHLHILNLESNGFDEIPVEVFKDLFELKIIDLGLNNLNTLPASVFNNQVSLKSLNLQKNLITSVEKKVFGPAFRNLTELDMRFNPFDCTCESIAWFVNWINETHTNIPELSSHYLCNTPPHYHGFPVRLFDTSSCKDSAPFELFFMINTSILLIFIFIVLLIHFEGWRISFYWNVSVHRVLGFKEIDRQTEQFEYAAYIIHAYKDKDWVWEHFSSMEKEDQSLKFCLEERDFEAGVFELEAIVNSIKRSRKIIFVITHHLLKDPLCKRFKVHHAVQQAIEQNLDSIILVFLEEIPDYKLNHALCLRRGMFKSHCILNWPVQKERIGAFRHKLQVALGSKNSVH
Procedure: The anisotropy of Rhodamine labeled Poly IC increased from approximately 0.116 to 0.171 upon addition of TLR3 (excitation=546 nm; emission=576 nm).
In 500 μL Tris buffer (pH=7.2) add 5 μL (1 μg/mL) Rhodamine labeled Poly IC (Invivogen), test the anisotropy at excitation of 546 nm and emission of 576 nm (Horiba Fluorolog 3). An addition 3 μL (20 μM) of TLR3 (R &D) was added in the buffer, then test the anisotropy again. Following, 4a was added in the buffer from 0 to 68 μM, and the fluorescence anisotropy was tested when the concentration was changed.

[4] = biological target: T3, Cyp1A2 (Homo sapiens, UniProt P05177); assay: Cytochrome P450 toxicity assay; assay type: in vitro ADME; details: 25 μM and 50 μM; compared to known inhibitor aNF
T3 construct: tissue Apredica (testing lab); host or cells: microsomes (subcellular fractions)
T3 sequence (P05177 1-516): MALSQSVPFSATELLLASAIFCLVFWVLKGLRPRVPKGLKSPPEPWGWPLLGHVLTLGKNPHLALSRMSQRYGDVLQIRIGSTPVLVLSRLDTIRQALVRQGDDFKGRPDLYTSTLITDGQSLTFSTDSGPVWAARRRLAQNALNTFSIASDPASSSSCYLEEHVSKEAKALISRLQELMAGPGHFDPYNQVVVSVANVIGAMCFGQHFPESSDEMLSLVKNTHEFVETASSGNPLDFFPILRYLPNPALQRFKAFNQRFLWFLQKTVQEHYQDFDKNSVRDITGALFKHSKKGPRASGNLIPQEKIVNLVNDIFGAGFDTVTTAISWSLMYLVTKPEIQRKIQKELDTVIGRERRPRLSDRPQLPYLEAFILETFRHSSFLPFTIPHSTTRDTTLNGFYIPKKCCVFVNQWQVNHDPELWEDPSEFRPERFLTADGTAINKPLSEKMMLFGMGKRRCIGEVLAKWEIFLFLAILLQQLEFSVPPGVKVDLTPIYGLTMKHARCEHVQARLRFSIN
Procedure: (§1) Test agent was incubated (two wells per condition) with microsomes at 37° C. Control incubations containing vehicle or reference inhibitors were run along side the test agents. The final assay contained test agent, probe substrates at the indicated concentration, 2 mM NADPH, 3 mM MgCl2 in 50 mM potassium phosphate buffer, pH 7.4. The final microsomal concentration was 0.5 mg/mL. The maximum solvent concentration in the final assay was ≦0.5% to minimize the inhibition of Cyps by solvent. NADPH was added last to start the assay. At the end of ten minutes incubation, the assay was stopped by the addition of acetonitrile containing internal standard, the samples were centrifuged, and the amount of probe metabolite in the supernatant was determined by LC/MS/MS. (Testing was done by Apredica, Watertown, Mass. using subcellular fractions)

[5] = biological target: T4, Cyp2C19 (Homo sapiens, UniProt P33261); assay: Cytochrome P450 toxicity assay; assay type: in vitro ADME; details: 25 μM and 50 μM; compared to known inhibitor ticlopidine
T4 construct: tissue Apredica (testing lab); host or cells: microsomes (subcellular fractions)
T4 sequence (P33261 whole entry): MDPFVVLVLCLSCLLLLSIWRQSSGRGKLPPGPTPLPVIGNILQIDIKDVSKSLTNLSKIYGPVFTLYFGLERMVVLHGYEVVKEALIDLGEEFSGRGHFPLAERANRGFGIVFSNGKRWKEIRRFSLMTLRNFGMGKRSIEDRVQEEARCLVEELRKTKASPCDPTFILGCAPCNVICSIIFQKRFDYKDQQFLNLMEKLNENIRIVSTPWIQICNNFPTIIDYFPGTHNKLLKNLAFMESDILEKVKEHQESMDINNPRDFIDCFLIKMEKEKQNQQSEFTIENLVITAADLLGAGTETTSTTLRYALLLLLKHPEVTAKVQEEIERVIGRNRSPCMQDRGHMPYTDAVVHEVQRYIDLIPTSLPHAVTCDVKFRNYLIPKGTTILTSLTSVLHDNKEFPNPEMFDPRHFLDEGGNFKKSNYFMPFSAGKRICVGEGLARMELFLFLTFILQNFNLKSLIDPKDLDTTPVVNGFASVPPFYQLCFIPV
Procedure: as §1

- TLR3 binding competition with dsRNA [3]: competes with dsRNA in binding to TLR3
- Ki ([3]; competes with dsRNA for binding to TLR3): 2.96 ± 0.32 µM
Compound: O=C(N[C@H](Cc1ccccc1)C(=O)O)c1sc2cc(F)ccc2c1Cl [Compound 4a, (R)-2-(3-chloro-6-fluorobenzo[b]thiophene-2-carboxamido)-3-phenylpropanoic acid]
- IL-1β production [1]: inhibits
- TNF-α production [1]: inhibits
- effect on TLR2/1 signaling [2]: without significantly affecting other TLRs
- anisotropy of Rhodamine labeled Poly IC ([3]; compound concentration increased to 68 μM): decreased the anisotropy to background levels
- toxicity to Cyp1A2 [4]: low toxicity
- toxicity to Cyp2C19 [5]: low toxicity
